{
  "source": "patent US7504522B2",
  "about": "“Azetidinecarboxamide derivatives and their use in the treatment of cb1 receptor mediated disorders” (Vernalis Research Limited, priority 2003, dated 2009)",
  "key": {"[1]": {"tested_on": "male C57B1/6 mice", "experiment": "Blockade of Δ^9-THC induced hypolocomotion in mice", "assay_type": "in vivo", "conditions": "p.o.; antagonism of reduction in locomotor behaviour induced by 3 mg/kg i.p. Δ^9-THC", "description": "The in vivo activity of compounds of formula (I) was assayed for ability to antagonise the reduction in locomotor behaviour induced by acute systemic administration of Δ^9-THC in male C57B1/6 mice. The procedure was as follows.\nTest compounds are assessed following acute oral or intraperitoneal administration at a dose of 30 mg/kg.\nThe route of test compound administration, drug volume and injection-test-interval are dependent upon the compounds used. 10 min before testing, a 3 mg/kg dose Δ^9-THC (or vehicle) is administered to mice by the i.p. route. […] The light beams are arranged on a 7 by 4 matrix on a metal grid. 16 grids are connected in series and Perspex boxes, 20 (width)×40 (length)×20 (height) cm, with a flat perforated, Perspex lid are placed in each grid. Mice are placed singly in Perspex boxes and the recording of activity in all 16 boxes starts simultaneously. The mice are left undisturbed to explore the novel activity monitor boxes for 15 minutes while beam breaks are recorded.\nLocomotor activity data are subjected to one-way analysis of variance (ANOVA) with drug treatment as a between-subjects factor. […] Significant differences between the vehicle/Δ^9-THC group and Test compound/Δ^9-THC groups are assessed by Newman-Keuls test. All statistical analyses were performed using Statistica Software, Version 6.0 (Statsoft Inc.) and Microsoft Excel 7.0 (Microsoft Corp.)."}, "[2]": {"target": "T1, recombinant human CB1 receptors (Homo sapiens, UniProt P21554)", "T1 construct": "expressed in transfected cells; host or cells: HEK293 cells (membranes)", "T1 sequence (P21554 whole entry)": "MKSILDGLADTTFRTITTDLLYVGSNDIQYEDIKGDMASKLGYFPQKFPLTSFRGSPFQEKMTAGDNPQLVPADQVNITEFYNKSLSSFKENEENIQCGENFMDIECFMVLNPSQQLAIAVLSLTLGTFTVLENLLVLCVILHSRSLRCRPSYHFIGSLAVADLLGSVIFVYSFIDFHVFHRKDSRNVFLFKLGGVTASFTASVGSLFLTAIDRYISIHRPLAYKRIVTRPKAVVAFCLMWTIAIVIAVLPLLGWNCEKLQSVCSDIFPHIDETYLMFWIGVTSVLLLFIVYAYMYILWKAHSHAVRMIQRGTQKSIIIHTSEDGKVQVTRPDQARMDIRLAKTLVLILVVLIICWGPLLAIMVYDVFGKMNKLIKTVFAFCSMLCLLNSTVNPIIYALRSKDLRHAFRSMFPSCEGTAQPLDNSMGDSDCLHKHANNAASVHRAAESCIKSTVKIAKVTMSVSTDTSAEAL", "experiment": "Binding to CB1 receptors", "conditions": "[^3H]-SR-141716A 1 nM; membranes from HEK293 cells expressing recombinant hCB1; Ki calculated from IC50 by Cheng-Prusoff", "description": "The binding of compounds of Formula I to recombinant human CB1 receptors was determined in vitro by standard methods, with reference to the procedure described by Rinaldi-Carmona et al. (Rinaldi-Camona, M., Pialot, F., Congy, C., Redon, E., Barth, F., Bachy, A., Breliere, J. C., Soubre, P., LeFur, G., Life Sci. 1996, 58(15), 1239-1247). Membranes were prepared from HEK293 cells expressing recombinant hCB1 receptors. Binding assays are performed in a total volume of 250 μL, containing [^3H]—SR-141716A (1 nM final concentration), membranes and test compound. Non-specific binding is determined using CP55,940 (10 μM). Serial dilutions are performed starting from test compounds as 10 mM solutions in DMSO. Compounds are tested over the concentration range 10^−10 M to 10^−5 M. Ki values are calculated from IC50 values using the Cheng-Prusoff equation."}, "[3]": {"tested_on": "male food-deprived Lister-hooded rats", "experiment": "Regulation of feeding behaviour (food consumption)", "assay_type": "in vivo", "conditions": "p.o.; acute administration; food consumption after 18-hour food withdrawal", "description": "The in vivo activity of compounds of formula (I) was assayed for ability to regulate feeding behaviour by measuring food consumption in male food-deprived Lister-hooded rats as follows.\nTest compounds are assessed following acute administration.\nThe anorectic drug sibutramine, or the reference CB1 receptor antagonist, SR141716A, normally serves as a positive control. The route of drug administration, drug volume and injection-test-interval are dependent upon the compounds used. The injection-test-interval is the time between dosing and food re-presentation. Typically, animals are fasted such that at the time of food re-presentation food has been withdrawn for an 18-hour period. Food consumption is assayed at pre-determined time points (typically 1, 2 and 4 hours after administration). Food intake data are subjected to one-way analysis of variance (ANOVA) with drug as a between-subjects factor. […] All statistical analyses were performed using Statistica Software, Version 6.0 (Statsoft Inc.) and Microsoft Excel 7.0 (Microsoft Corp.)."}},
  "note": "pKi: −log10 of the molar value.",
  "data": [
    {"molecule": "CC(C)(C)NC(=O)N1CC(OC(c2ccc(Cl)cc2)c2ccc(Cl)cc2Cl)C1", "note": "(centres unmarked) [Example 1, 3-(2,4,4′-trichlorobenzhydryloxy)-N-(tert-butyl)azetidine-1-carboxamide]", "values": [
      {"measurement": "Active dose (mg/kg), route", "setting": "[1]", "result": "30, p.o. mg/kg"},
      {"measurement": "pKi", "setting": "[2]", "result": 8.33},
      {"measurement": "M.E.D (mg/kg), route", "setting": "[3]", "result": "30, p.o. mg/kg"}
    ]},
    {"molecule": "CC(C)(C)NC(=O)N1CC(OC(c2ccc(Cl)cc2)c2ccccc2C(F)(F)F)C1", "note": "(single isomer, unassigned) [Example 139, 3-[(R*)-2-(trifluoromethyl)-4′-chlorobenzhydryloxy]-N-(tert-butyl)-azetidine-1-carboxamide]", "values": [
      {"measurement": "pKi", "setting": "[2]", "result": 9.22},
      {"measurement": "M.E.D (mg/kg), route", "setting": "[3]", "result": "1, p.o. mg/kg"}
    ]},
    {"molecule": "O=C(NC12CC3CC(CC(C3)C1)C2)N1CC(OC(c2ccc(Cl)cc2)c2ccc(Cl)cc2)C1", "note": "[Example 30, 3-(4,4′-dichlorobenzhydryloxy)-N-(1-adamantyl)azetidine-1-carboxamide]", "values": [
      {"measurement": "pKi", "setting": "[2]", "result": 7.72}
    ]},
    {"molecule": "CC(C)(C)NC(=O)N1CC(OC(c2ccc(S(C)(=O)=O)cc2)c2ccccc2C(F)(F)F)C1", "note": "(single isomer, unassigned) [Example 140, 3-[(S*)-2-(trifluoromethyl)-4′-(methylsulphonyl)benzhydryloxy]-N-(tert-butyl)azetidine-1-carboxamide]", "values": [
      {"measurement": "pKi", "setting": "[2]", "result": 7.57}
    ]},
    {"molecule": "CC(C)(C)NC(=O)N1CC(OC(c2ccc(Cl)cc2)c2ccccc2C(F)(F)F)C1", "note": "(racemic) [Example 81, 3-[2-(trifluoromethyl)-4′-chlorobenzhydryloxy]-N-(tert-butyl)azetidine-1-carboxamide]", "values": [
      {"measurement": "Active dose (mg/kg), route", "setting": "[1]", "result": "30, p.o. mg/kg"},
      {"measurement": "pKi", "setting": "[2]", "result": 8.64},
      {"measurement": "M.E.D (mg/kg), route", "setting": "[3]", "result": "3, p.o. mg/kg"}
    ]},
    {"molecule": "CC(C)(C)NC(=O)N1CC(OC(c2ccc(Br)cc2F)c2ccccc2C(F)(F)F)C1", "note": "(centres unmarked) [Example 94, 3-[2-(trifluoromethyl)-2′-fluoro-4′-bromobenzhydryloxy]-N-(tert-butyl)azetidine-1-carboxamide]", "values": [
      {"measurement": "Active dose (mg/kg), route", "setting": "[1]", "result": "30, p.o. mg/kg"},
      {"measurement": "pKi", "setting": "[2]", "result": 8.89},
      {"measurement": "M.E.D (mg/kg), route", "setting": "[3]", "result": "10, p.o. mg/kg"}
    ]},
    {"molecule": "CC(C)(C)NC(=O)N1CC(OC(c2ccc(Cl)cc2)c2ccccc2Cl)C1", "note": "(centres unmarked) [Example 4, 3-(2,4′-dichlorobenzhydryloxy)-N-(tert-butyl)azetidine-1-carboxamide]", "values": [
      {"measurement": "Active dose (mg/kg), route", "setting": "[1]", "result": "30, p.o. mg/kg"},
      {"measurement": "pKi", "setting": "[2]", "result": 8.35},
      {"measurement": "M.E.D (mg/kg), route", "setting": "[3]", "result": "30, p.o. mg/kg"}
    ]},
    {"molecule": "CC(C)(C)NC(=O)N1CC(OC(c2ccc(Cl)cc2)c2ccc(Cl)cc2)C1", "note": "[Example 28, 3-(4,4′-dichlorobenzhydryloxy)-N-(tert-butyl)azetidine-1-carboxamide]", "values": [
      {"measurement": "pKi", "setting": "[2]", "result": 7.10}
    ]}
  ]
}
